The target in assay [1] is T1, PfCRT variant Y89A (Plasmodium falciparum, UniProt Q9N623, A220S/I356T/K76T/M74I/N326S/N75E/Q271E/R371I/Y89A).
T1 sequence (Q9N623 1-424 M74I/N75E/K76T/Y89A/A220S/Q271E/N326S/I356T/R371I): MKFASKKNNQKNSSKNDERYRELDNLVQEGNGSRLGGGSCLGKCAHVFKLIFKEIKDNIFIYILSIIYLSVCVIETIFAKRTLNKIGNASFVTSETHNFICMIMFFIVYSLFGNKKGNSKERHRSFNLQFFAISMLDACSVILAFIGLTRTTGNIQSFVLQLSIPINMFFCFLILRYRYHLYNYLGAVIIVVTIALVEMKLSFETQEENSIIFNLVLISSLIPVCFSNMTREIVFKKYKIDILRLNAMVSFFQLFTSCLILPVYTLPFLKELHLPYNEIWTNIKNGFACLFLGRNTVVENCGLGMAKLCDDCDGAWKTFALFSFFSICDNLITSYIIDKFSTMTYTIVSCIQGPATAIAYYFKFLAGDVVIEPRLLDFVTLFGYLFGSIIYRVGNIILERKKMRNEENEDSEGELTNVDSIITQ
Nature of the assay: CQ uptake assay, oocytes expressing Y89A. The assay is classed as cell-based. Here is the method: (§1) Site-directed mutagenesis of PfCRT^Dd2 was performed as described using the megaprimer method with overlap extension[21],[54]. The primer pairs used are listed in Supplementary Table 6. Please note that a codon-optimized and oocyte-adapted version of PfCRT^Dd2 was used[22] (Supplementary Fig. 16). The resulting DNA fragment was cloned into the SP64T expression vector and verified by sequencing.
(§2) Oocytes were obtained as described previously. Briefly, adult (>2 years old) female X. laevis frogs (NASCO) were anesthetized in a cooled solution of ethyl 3-amino benzoate methanesulfonate (0.1%, w/v), followed by a surgical removal of parts of the ovary. The ovary lobes were carefully dissected and small pieces of oocytes were incubated in Ca^2+-free ND96 buffer (96 mM NaCl, 2 mM KCl, 1 mM MgCl2 buffered with 5 mM HEPES/NaOH, pH 7.5) supplemented with collagenase D (0.1%, w/v; Roche), BSA (0.5%, w/v), and 9 mm Na2HPO4 at 18 °C for 14-16 h while gentle shaking. After incubation, the oocytes were carefully washed several times with ND96 buffer (96 mM NaCl, 2 mM KCl, 1.8 mM CaCl2, 1 mM MgCl2 buffered with 5 mM HEPES/NaOH, pH 7.5) supplemented with 100 mg l^−1 gentamycin). Defolliculated and healthy-looking stage V-VI oocytes were manually selected for RNA microinjection. The RNA was generated as following: The codon-optimized sequences of PfCRT variants were cloned into the pSP64T expression vector. After vector linearization using the restriction endonucleases BamHI or SalI (New England Biolabs), transcription was performed using the in vitro SP6 mMessage mMachine Kit (Ambion)[34]. The obtained RNA was kept at −80 °C and diluted with nuclease-free water to a concentration of 0.6 μg μl^−1. Precision-bore glass capillary tubes (3.5-inch glass capillaries; Drummond Scientific Co.) were pulled on a vertical puller (P-87 Flaming/Brown micropipette puller, Sutter Instrument Co.), graduated, and placed on a microinjector (Nanoject II Auto-Nanoliter Injector, Drummond Scientific Co.). 50 nl of nuclease-free water alone (control oocytes) or 50 nl of 0.6 μg μl^−1 RNA were injected under stereomicroscopic control. Injected oocytes were incubated for 46–72 h at 18 °C with twice-daily buffer changes before usage in experiments.
Drug uptake assays were performed as described previously[21],[22],[24],[34]. […] The direction of radio-labeled drug transport is here from the mostly acidic extracellular solution (pH 4.5 or 6.0, as indicated) into the oocyte cytosol (pH ∼ 7.2), which corresponds to the efflux of drug from the acidic digestive vacuole (pH 5.2) into the parasite cytoplasm (pH 7.2). The topology of PfCRT in the oolemma is such that both the N- and C-terminus face the extracellular milieu[3],[22]. In the parasite, the N- and C-terminus face the lumen of the digestive vacuole. […] For determination of the amount of drug uptake for each oocyte, the reaction medium was removed and the oocytes were washed three times with 2 ml of ice-cold ND96 buffer. Each oocyte was individually transferred to a scintillation vial containing 5% sodium dodecyl sulfate (200 μl) for lysis. […] Oocytes that were injected with water instead of RNA were analyzed in parallel, representing the uptake of a drug by diffusion and/or endogenous permeation pathways. […] The specific PfCRT-mediated uptake was determined by subtracting the corresponding background value measured in water-injected oocytes from that of PfCRT-expressing oocytes. […]

Assay [2] has as its system PfCRT variant H180A. Nature of the assay: CQ uptake assay, oocytes expressing H180A. The assay is classed as cell-based, Plasmodium falciparum. Here is the method: as §1, §2
Drug uptake assays were performed as described previously[21],[22],[24],[34]. […] The direction of radio-labeled drug transport is here from the mostly acidic extracellular solution (pH 4.5 or 6.0, as indicated) into the oocyte cytosol (pH ∼ 7.2), which corresponds to the efflux of drug from the acidic digestive vacuole (pH 5.2) into the parasite cytoplasm (pH 7.2). The topology of PfCRT in the oolemma is such that both the N- and C-terminus face the extracellular milieu[3],[22]. In the parasite, the N- and C-terminus face the lumen of the digestive vacuole. CQ uptake kinetics were performed by incubating oocytes in ND96 buffer adjusted to a pH of 4.5, 5.0, 5.5, or 6.0 and supplemented with 50 nM [^3H]CQ and one of 7 different CQ concentrations (10 µM, 50 µM, 100 µM, 200 µM, 300 µM, 400 µM, 500 µM CQ). The reaction was stopped at the 60 min time point, which is in the linear uptake range[22],[34] (Supplementary Fig. 17). […] The radioactivity of each sample was measured using a liquid scintillation analyzer Tri-Carb 4910 TR (PerkinElmer). Oocytes that were injected with water instead of RNA were analyzed in parallel, representing the uptake of a drug by diffusion and/or endogenous permeation pathways. […]

Assay [3] relates to PfCRT variant R374A. Nature of the assay: CQ uptake assay, oocytes expressing R374A. The assay is classed as cell-based, Plasmodium falciparum. The method, then:
as §1
as §2, with “Precision-bore glass capillary tubes (3.5-inch glass capillaries; Drummond Scientific Co.) were pulled on a vertical puller (P-87 Flaming/Brown micropipette puller, Sutter Instrument Co.), graduated, and placed on a microinjector (Nanoject II Auto-Nanoliter Injector, Drummond Scientific Co.). 50 nl of nuclease-free water alone (control oocytes) or 50 nl of 0.6 μg μl^−1 RNA were injected under stereomicroscopic control. Injected oocytes were incubated for 46–72 h at 18 °C with twice-daily buffer changes before usage in experiments.” left out
Drug uptake assays were performed as described previously[21],[22],[24],[34]. […] The radioactivity of each sample was measured using a liquid scintillation analyzer Tri-Carb 4910 TR (PerkinElmer). Oocytes that were injected with water instead of RNA were analyzed in parallel, representing the uptake of a drug by diffusion and/or endogenous permeation pathways. […]

The mark [4] stands for this setting: pH 4.5, single replicates, Fig 1d left.
Setting [5] is: pH 6.0, single replicates, Fig 1d left.
The mark [6] stands for this setting: H180A, 50 µM CQ, 1 h, mean ± SEM.

“And” between values parts separate entries of the source, which are not always exact repeats. Identical values can stand only once.

As for `CCN(CC)CCCC(C)Nc1ccnc2cc(Cl)ccc12` (stereo not shown) [CQ, chloroquine], the “Activity at pH 4.5” value in assay [1] (Y89A, 50 µM CQ, 1 h, mean ± SEM) turned out to be 0.73 ± 0.05 pmol h-1 oocyte-1; in assay [2] (setting [6]), 1.14 ± 0.27 pmol h-1 oocyte-1; in assay [3] (50 µM CQ, 1 h, mean ± SEM) it was 0.90 ± 0.14 pmol h-1 oocyte-1. Moreover, the R-value amounted to 0.43 ± 0.06 in assay [1] (Y89A, CQ transport at pH 4.5 / pH 6.0); 0.36 ± 0.09 in assay [2] (H180A, CQ transport at pH 4.5 / pH 6.0); 0.23 ± 0.03 in assay [3] (CQ transport at pH 4.5 / pH 6.0). Moreover, the “Y89A transport activity pH 4.5” value in assay [1] (setting [4]) is 0.79 pmol oocyte-1 h-1 and 0.80 pmol oocyte-1 h-1 and 0.60 pmol oocyte-1 h-1. The “Y89A R-value” in assay [1] (pH 4.5 vs pH 6.0, Fig 1d left) was 0.47 and 0.40 and 0.37. Besides, in assay [1] (setting [5]), the “Y89A transport activity pH 6.0” value is 1.68 pmol oocyte-1 h-1 and 1.99 pmol oocyte-1 h-1 and 1.64 pmol oocyte-1 h-1. Also, the “Activity at pH 6.0” value in assay [2] (setting [6]) worked out at 3.12 ± 0.12 pmol h-1 oocyte-1; in assay [3] (50 µM CQ, 1 h, mean ± SEM) it was 3.81 ± 0.61 pmol h-1 oocyte-1. In assay [2] (setting [4]), the “H180A transport activity pH 4.5” value is 0.55 pmol oocyte-1 h-1 and 1.69 pmol oocyte-1 h-1 and 1.17 pmol oocyte-1 h-1. Further, in assay [2] (setting [5]), the “H180A transport activity pH 6.0” value was 2.90 pmol oocyte-1 h-1 and 3.04 pmol oocyte-1 h-1 and 3.41 pmol oocyte-1 h-1.

The record behind these values is paper PMC10349806 (Nature Communications, 2023).
